Settings: 362.9 K, Liquid, Vibrating tube method

FC(F)=C(F)C(F)(F)F [hexafluoropropene]
Settings | mass density [kg/m3]
5080.8 kPa | 959.79
5112.9 kPa | 961.66
5146 kPa | 963.53
5179.5 kPa | 965.35
5212.8 kPa | 967.09
5246.7 kPa | 968.92
5279.6 kPa | 970.74
5314.8 kPa | 972.51
5347.4 kPa | 974.13
5381.2 kPa | 975.88
5415.7 kPa | 977.6
5518.8 kPa | 982.72
5553.4 kPa | 984.34
5588.2 kPa | 985.96
5623.1 kPa | 987.64
5657.5 kPa | 989.1
5693.5 kPa | 990.75
5727.5 kPa | 992.15
5764.4 kPa | 993.86
5798.2 kPa | 995.17
5832.3 kPa | 996.63
5864.9 kPa | 997.97
5898.1 kPa | 999.35
5930.9 kPa | 1000.69
5965 kPa | 1002.21
6035.1 kPa | 1005.02
6069.8 kPa | 1006.31
6105.1 kPa | 1007.76
6137.3 kPa | 1008.98
6172 kPa | 1010.25
6204.9 kPa | 1011.55
6239.5 kPa | 1012.84
6274 kPa | 1014.15
6308.5 kPa | 1015.34
6343.7 kPa | 1016.69
6377.6 kPa | 1017.96
6413.1 kPa | 1019.11
6447.2 kPa | 1020.3
6480.8 kPa | 1021.47
6516.3 kPa | 1022.68
6550 kPa | 1023.83
6584.4 kPa | 1025.06
6618.1 kPa | 1026.09
6653.8 kPa | 1027.34
6686.8 kPa | 1028.37
6720.5 kPa | 1029.53
6754.6 kPa | 1030.75
6789.1 kPa | 1031.78
6824.9 kPa | 1032.91
6860.3 kPa | 1034.08
6893.3 kPa | 1035.1
6959.4 kPa | 1037.09
6993.3 kPa | 1038.11
7029.7 kPa | 1039.21
7062.9 kPa | 1040.15
7097.9 kPa | 1041.26
7134 kPa | 1042.28
7168.5 kPa | 1043.39
7202.4 kPa | 1044.3
7237.6 kPa | 1045.38
7273.1 kPa | 1046.4
7307.6 kPa | 1047.38
7378 kPa | 1049.33
7411.6 kPa | 1050.3
7482.4 kPa | 1052.26
7514.7 kPa | 1053.12
7547 kPa | 1053.95
7581.8 kPa | 1054.97
7615.4 kPa | 1055.85
7651.7 kPa | 1056.85
7689.7 kPa | 1057.93
7725.6 kPa | 1058.74
7762.3 kPa | 1059.79
7796.7 kPa | 1060.54
7833.4 kPa | 1061.54
7869.9 kPa | 1062.44
7906.3 kPa | 1063.38
7940.8 kPa | 1064.3
7976.7 kPa | 1065.12
8010.3 kPa | 1065.98
8045.2 kPa | 1066.87
8081.6 kPa | 1067.62
8115 kPa | 1068.6
8149.9 kPa | 1069.37
8185.9 kPa | 1070.21
8223.3 kPa | 1071.09
8281.3 kPa | 1072.48
8320.9 kPa | 1073.52
8358.3 kPa | 1074.27
8396.8 kPa | 1075.12
8431.8 kPa | 1075.97
8468.6 kPa | 1076.79
8505.7 kPa | 1077.66
8541.8 kPa | 1078.5
8577.3 kPa | 1079.34
8611.7 kPa | 1080.05
8649.3 kPa | 1080.92
8689.4 kPa | 1081.74
8724.6 kPa | 1082.52
8800.2 kPa | 1084.14
8834.9 kPa | 1084.87
8868.8 kPa | 1085.56
8902.9 kPa | 1086.27
8937.5 kPa | 1087.05
8971.8 kPa | 1087.76
9005.2 kPa | 1088.42
9039.7 kPa | 1089.26
9073.1 kPa | 1089.94
9106.5 kPa | 1090.69
9140.8 kPa | 1091.37
9173.4 kPa | 1092.03
9205.8 kPa | 1092.74
9239.9 kPa | 1093.42
9274.7 kPa | 1094.03
9308.6 kPa | 1094.75
9341.7 kPa | 1095.45
9377.4 kPa | 1096.15
9410.8 kPa | 1096.73
9445.5 kPa | 1097.46
9479.4 kPa | 1098.06
9548.7 kPa | 1099.5
9582.4 kPa | 1100.15
9618.6 kPa | 1100.84
9652.6 kPa | 1101.51
9687.1 kPa | 1102.18
9721.9 kPa | 1102.81
9756.1 kPa | 1103.39
9789.2 kPa | 1104.04
9822.6 kPa | 1104.65
9858.4 kPa | 1105.3
9893.4 kPa | 1106.05
9929.5 kPa | 1106.67
9963.2 kPa | 1107.25
9996.5 kPa | 1107.93

From the NIST ThermoML archive (doi:10.1021/je900596d)
